Reference: PubChem BioAssay AID1963451 (Molecular Pharmacology Branch, DTP, NCI, 2024)

Tested on: 521955-158-R6-J3-PDC complex spheroid growth, % test/control
Assay: Anticancer human tumor 521955-158-R6-J3-PDC patient-derived pancreatic carcinoma cell line growth inhibition [Asc]
Settings: for IC50: curve of first compound; for viability, T/C: stronger effect = lower value
Outline: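 Stromal components (HUVEC and hMSC) are co-assembled with the cancer cells into multicellular spheroids. Drugs are then added singly or paired, at concentrations falling by half-log increments from a clinically achievable maximum, capped at 10 microM without known Cmax.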
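Also: spheroids exposed to compounds for 7 days.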
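For viability, T/C in this document: 100% = DMSO vehicle control wells.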

## C=CC(=O)N1CCN(c2nc(=O)n(-c3c(C)ccnc3C(C)C)c3nc(-c4c(O)cccc4F)c(F)cc23)C(C)C1 (configuration not stated) + CCN1C(C(=O)NC23CCC(C(=O)O)(CC2)CC3)C(c2cccc(Cl)c2F)C2(C(=O)Nc3cc(Cl)ccc32)C12CCCCC2
Second compound 0.00949 µM
  IC50: > 10 µM
Second compound 0.03 µM
  IC50: > 10 µM
Second compound 0.0949 µM
  IC50: > 10 µM
Second compound 0.3 µM
  IC50: > 10 µM
Second compound 0.949 µM
  IC50: > 10 µM
Second compound 3 µM
  IC50: > 10 µM
Second compound 0.00949 µM, first compound 0.0316 µM
  viability, T/C: 121%
Second compound 0.00949 µM, first compound 0.1 µM
  viability, T/C: 111%
Second compound 0.00949 µM, first compound 0.316 µM
  viability, T/C: 107%
Second compound 0.00949 µM, first compound 1 µM
  viability, T/C: 106%
Second compound 0.00949 µM, first compound 3.16 µM
  viability, T/C: 114%
Second compound 0.00949 µM, first compound 10 µM
  viability, T/C: 109%
Second compound 0.03 µM, first compound 0.0316 µM
  viability, T/C: 94.3%
Second compound 0.03 µM, first compound 0.1 µM
  viability, T/C: 113%
Second compound 0.03 µM, first compound 0.316 µM
  viability, T/C: 103%
Second compound 0.03 µM, first compound 1 µM
  viability, T/C: 114%
Second compound 0.03 µM, first compound 3.16 µM
  viability, T/C: 101%
Second compound 0.03 µM, first compound 10 µM
  viability, T/C: 95.7%
Second compound 0.0949 µM, first compound 0.0316 µM
  viability, T/C: 119%
Second compound 0.0949 µM, first compound 0.1 µM
  viability, T/C: 91.2%
Second compound 0.0949 µM, first compound 0.316 µM
  viability, T/C: 118%
Second compound 0.0949 µM, first compound 1 µM
  viability, T/C: 103%
Second compound 0.0949 µM, first compound 3.16 µM
  viability, T/C: 108%
Second compound 0.0949 µM, first compound 10 µM
  viability, T/C: 101%
Second compound 0.3 µM, first compound 0.0316 µM
  viability, T/C: 101%
Second compound 0.3 µM, first compound 0.1 µM
  viability, T/C: 115%
Second compound 0.3 µM, first compound 0.316 µM
  viability, T/C: 107%
Second compound 0.3 µM, first compound 1 µM
  viability, T/C: 112%
Second compound 0.3 µM, first compound 3.16 µM
  viability, T/C: 109%
Second compound 0.3 µM, first compound 10 µM
  viability, T/C: 103%
Second compound 0.949 µM, first compound 0.0316 µM
  viability, T/C: 108%
Second compound 0.949 µM, first compound 0.1 µM
  viability, T/C: 105%
Second compound 0.949 µM, first compound 0.316 µM
  viability, T/C: 102%
Second compound 0.949 µM, first compound 1 µM
  viability, T/C: 107%
Second compound 0.949 µM, first compound 3.16 µM
  viability, T/C: 121%
Second compound 0.949 µM, first compound 10 µM
  viability, T/C: 92.2%
Second compound 3 µM, first compound 0.0316 µM
  viability, T/C: 91.8%
Second compound 3 µM, first compound 0.1 µM
  viability, T/C: 95.8%
Second compound 3 µM, first compound 0.316 µM
  viability, T/C: 97.7%
Second compound 3 µM, first compound 1 µM
  viability, T/C: 92.5%
Second compound 3 µM, first compound 3.16 µM
  viability, T/C: 102%
Second compound 3 µM, first compound 10 µM
  viability, T/C: 94.3%
